The compounds below were run on MDA-MB-436 cells (assay: Growth inhibition assay against BRCA mutant human breast cancer MDA-MB-436 cell line (CCK-8, 7 days)).
Type: cell-based
Work on `CNC(=O)c1ccc(N2CCN(Cc3ccc4c5c(c(=O)[nH]c4c3)COC5)CC2)cn1` [Example 1, 7-((4-(6-(methylcarbamoyl)pyridin-3-yl)piperazin-1-yl)methyl)-3,5-dihydrofuro[3,4-c]quinolin-4(1H)-one] yielded an IC50 of 170 nM.
Work on `CNC(=O)c1ccc(N2CCN(Cc3ccc4c5c(c(=O)[nH]c4c3)CCC5)CC2)c(C)n1` [Example 17, 7-((4-(2-methyl-6-(methylcarbamoyl)pyridin-3-yl)piperazin-1-yl)methyl)-1,2,3,5-tetrahydro-4H-cyclopenta[c]quinolin-4-one] yielded an IC50 of 2.59 nM.
With `CNC(=O)c1ccc(N2CCN(Cc3ccc4c(c3)[nH]c(=O)c3cncn34)CC2)c(C)n1` [Example 26, 7-((4-(2-methyl-6-(methylcarbamoyl)pyridin-3-yl)piperazin-1-yl)methyl)imidazo[1,5-a]quinoxalin-4(5H)-one] the IC50 was 23.9 nM.
In the case of `CNC(=O)c1ccc(N2CCN(Cc3ccc4c(c3)[nH]c(=O)c3ncnn34)CC2)c(C)n1` [Example 29, 7-((4-(2-methyl-6-(methylcarbamoyl)pyridin-3-yl)piperazin-1-yl)methyl)-[1,2,4]triazolo[1,5-a]quinoxalin-4(5H)-one], the IC50 is reported as 28.2 nM.
`CNC(=O)c1ccc(N2CCN(Cc3ccc4c(c3)[nH]c(=O)n3ccnc43)CC2)c(C)n1` [Example 31, 8-((4-(2-methyl-6-(methylcarbamoyl)pyridin-3-yl)piperazin-1-yl)methyl)imidazo[1,2-c]quinazolin-5(6H)-one] showed an IC50 of 2.08 nM.
`CNC(=O)c1ccc(N2CCN(Cc3ccc4c(c3)[nH]c(=O)c3cccn34)CC2)c(F)n1` [Example 34, 7-((4-(2-fluoro-6-(methylcarbamoyl)pyridin-3-yl)piperazin-1-yl)methyl)pyrrolo[1,2-a]quinoxalin-4(5H)-one] gave an IC50 of 0.75 nM.
`CNC(=O)c1ccc(N2CCN(Cc3ccc4c(c3)[nH]c(=O)c3cncn34)CC2)c(Cl)n1` [Example 39, 7-((4-(2-chloro-6-(methylcarbamoyl)pyridin-3-yl)piperazin-1-yl)methyl)imidazo[1,5-a]quinoxalin-4(5H)-one] was tested, and the IC50 was 3.56 nM.
In the case of `CNC(=O)c1ccc(N2CCN(Cc3cc(F)c4c(c3)[nH]c(=O)c3cccn34)CC2)c(F)n1` [Example 41, 7-((4-(2-fluoro-6-(methylcarbamoyl)pyridin-3-yl)piperazin-1-yl)methyl)-9-fluoropyrrolo[1,2-a]quinoxalin-4(5H)-one], the IC50 is reported as 1.41 nM.
`CNC(=O)c1ccc(N2CCN(Cc3cc(F)c4c(c3)[nH]c(=O)c3cccn34)CC2)c(Cl)n1` [Example 42, 7-((4-(2-chloro-6-(methylcarbamoyl)pyridin-3-yl)piperazin-1-yl)methyl)-9-fluoropyrrolo[1,2-a]quinoxalin-4(5H)-one] was tested, and the IC50 was 0.93 nM.
In the case of `CNC(=O)c1ccc(N2CCN(Cc3cc(F)c4c(c3)[nH]c(=O)c3ccnn34)CC2)c(C)n1` [Example 43, 7-((4-(2-methyl-6-(methylcarbamoyl)pyridin-3-yl)piperazin-1-yl)methyl)-9-fluoropyrazolo[1,5-a]quinoxalin-4(5H)-one], the IC50 is reported as 1.2 nM.
With `CNC(=O)c1ccc(N2CCN(Cc3cc(F)c4c(c3)[nH]c(=O)c3ccnn34)CC2)c(Cl)n1` [Example 45, 7-((4-(2-chloro-6-(methylcarbamoyl)pyridin-3-yl)piperazin-1-yl)methyl)-9-fluoropyrazolo[1,5-a]quinoxalin-4(5H)-one] the IC50 was 2.24 nM.
`CNC(=O)c1ccc(N2CCN(Cc3cc(Cl)c4c(c3)[nH]c(=O)c3ccnn34)CC2)c(C)n1` [Example 46, 7-((4-(2-methyl-6-(methylcarbamoyl)pyridin-3-yl)piperazin-1-yl)methyl)-9-chloropyrazolo[1,5-a]quinoxalin-4(5H)-one] was tested, and the IC50 was 2.27 nM.
Work on `CNC(=O)c1ccc(N2CCN(Cc3cc(Cl)c4c(c3)[nH]c(=O)c3ccnn34)CC2)c(F)n1` [Example 47, 7-((4-(2-fluoro-6-(methylcarbamoyl)pyridin-3-yl)piperazin-1-yl)methyl)-9-chloropyrazolo[1,5-a]quinoxalin-4(5H)-one] yielded an IC50 of 2.6 nM.
Work on `CCNC(=O)c1ccc(N2CCN(Cc3ccc4c5c(c(=O)[nH]c4c3)CCC5)CC2)c(C)n1` [Example 49, 7-((4-(2-methyl-6-(ethylcarbamoyl)pyridin-3-yl)piperazin-1-yl)methyl)-1,2,3,5-tetrahydro-4H-cyclopenta[c]quinolin-4-one] yielded an IC50 of 2.18 nM.
Work on `CCNC(=O)c1ccc(N2CCN(Cc3ccc4c5c(c(=O)[nH]c4c3)CCC5)CC2)c(Cl)n1` [Example 50, 7-((4-(2-chloro-6-(ethylcarbamoyl)pyridin-3-yl)piperazin-1-yl)methyl)-1,2,3,5-tetrahydro-4H-cyclopenta[c]quinolin-4-one] yielded an IC50 of 5.7 nM.
`CNC(=O)c1ccc(N2CCN(Cc3ccc4c(c3)[nH]c(=O)c3cc(C)cn34)CC2)c(C)n1` [Example 55, 7-((4-(2-methyl-6-(methylcarbamoyl)pyridin-3-yl)piperazin-1-yl)methyl)-2-methylpyrrolo[1,2-a]quinoxalin-4(5H)-one] gave an IC50 of 1.44 nM.
Work on `CNC(=O)c1ccc(N2CCN(Cc3ccc4c(c3)[nH]c(=O)c3c(C)cnn34)CC2)c(C)n1` [Example 58, 7-((4-(2-methyl-6-(methylcarbamoyl)pyridin-3-yl)piperazin-1-yl)methyl)-3-methylpyrazolo[1,5-a]quinoxalin-4(5H)-one] yielded an IC50 of 1.87 nM.
`O=C(NC1CC1)c1ccc(N2CCN(Cc3ccc4c(c3)[nH]c(=O)c3cccn34)CC2)c(F)n1` [Example 60, 7-((4-(2-fluoro-6-(cyclopropylcarbamoyl)pyridin-3-yl)piperazin-1-yl)methyl)pyrrolo[1,2-a]quinoxalin-4(5H)-one] was tested, and the IC50 was 0.63 nM.
`O=C(NC1CC1)c1ccc(N2CCN(Cc3ccc4c(c3)[nH]c(=O)c3cccn34)CC2)c(Cl)n1` [Example 61, 7-((4-(2-chloro-6-(cyclopropylcarbamoyl)pyridin-3-yl)piperazin-1-yl)methyl)pyrrolo[1,2-a]quinoxalin-4(5H)-one] showed an IC50 of 0.98 nM.
In the case of `Cc1nc(C(=O)NC2CC2)ccc1N1CCN(Cc2ccc3c4c(c(=O)[nH]c3c2)COC4)CC1` [Example 63, 7-((4-(2-methyl-6-(cyclopropylcarbamoyl)pyridin-3-yl)piperazin-1-yl)methyl)-3,5-dihydrofuro[3,4-c]quinolin-4(1H)-one], the IC50 is reported as 3.32 nM.
With `CNC(=O)c1ccc(N2CCN(Cc3ccc4c(c3)[nH]c(=O)c3cccn34)CC2)cn1` [Example 65, 7-((4-(6-(methylcarbamoyl)pyridin-3-yl)piperazin-1-yl)methyl)pyrrolo[1,2-a]quinoxalin-4(5H)-one] the IC50 was 1.12 nM.
`CNC(=O)c1ccc(N2CCN(Cc3cc(F)c4c(c3)[nH]c(=O)c3cc(C)nn34)CC2)c(C)n1` [Example 75, 7-((4-(2-methyl-6-(methylcarbamoyl)pyridin-3-yl)piperazin-1-yl)methyl)-9-fluoro-2-methylpyrazolo[1,5-a]quinoxalin-4(5H)-one] showed an IC50 of 3.31 nM.
For `CNC(=O)c1ccc(N2CCN(Cc3cc(F)c4c5c(c(=O)[nH]c4c3)CCC5)CC2)c(C)n1` [Example 79, 7-((4-(2-methyl-6-(methylcarbamoyl)pyridin-3-yl)piperazin-1-yl)methyl)-9-fluoro-1,2,3,5-tetrahydro-4H-cyclopenta[c]quinolin-4-one], the IC50 was 1.04 nM.
`Cc1nc(C(=O)NC2CC2)ccc1N1CCN(Cc2cc(F)c3c4c(c(=O)[nH]c3c2)CCC4)CC1` [Example 81, 7-((4-(2-methyl-6-(cyclopropylcarbamoyl)pyridin-3-yl)piperazin-1-yl)methyl)-9-fluoro-1,2,3,5-tetrahydro-4H-cyclopenta[c]quinolin-4-one] showed an IC50 of 4.67 nM.
Work on `O=C(NC1CC1)c1ccc(N2CCN(Cc3cc(F)c4c5c(c(=O)[nH]c4c3)CCC5)CC2)c(F)n1` [Example 82, 7-((4-(2-fluoro-6-(cyclopropylcarbamoyl)pyridin-3-yl)piperazin-1-yl)methyl)-9-fluoro-1,2,3,5-tetrahydro-4H-cyclopenta[c]quinolin-4-one] yielded an IC50 of 3.66 nM.
For `[2H]C([2H])([2H])NC(=O)c1ccc(N2CCN(Cc3cc(F)c4c(c3)[nH]c(=O)c3ccnn34)CC2)c(C)n1` [Example 90, 7-((4-(2-methyl-6-((methyl-d3)-carbamoyl)pyridin-3-yl)piperazin-1-yl)methyl)-9-fluoropyrazolo[1,5-a]quinoxalin-4(5H)-one], the IC50 was 2.44 nM.
`CNC(=O)c1ccc(N2CCN(Cc3cc4[nH]c(=O)c5ccnn5c4cc3F)CC2)c(C)n1` [Example 93, 7-((4-(2-methyl-6-(methylcarbamoyl)pyridin-3-yl)piperazin-1-yl)methyl)-8-fluoropyrazolo[1,5-a]quinoxalin-4(5H)-one] gave an IC50 of 5.68 nM.
In the case of `CNC(=O)c1ccc(N2CCN(Cc3cc(F)c4c(c3)[nH]c(=O)n3ccnc43)CC2)c(C)n1` [Example 96, 8-((4-(2-methyl-6-(methylcarbamoyl)pyridin-3-yl)piperazin-1-yl)methyl)-10-fluoroimidazo[1,2-c]quinazolin-5(6H)-one], the IC50 is reported as 1.93 nM.
For `CNC(=O)c1ccc(N2CCN(Cc3cc(F)c4c(c3)[nH]c(=O)c3ccnn34)CC2)cn1` [Example 97, 7-((4-(6-(methylcarbamoyl)pyridin-3-yl)piperazin-1-yl)methyl)-9-fluoropyrazolo[1,5-a]quinoxalin-4(5H)-one], the IC50 was 111 nM.
For `CNC(=O)c1ccc(N2CCN(Cc3ccc4c(c3)[nH]c(=O)c3c(Cl)cnn34)CC2)c(F)n1` [Example 99, 7-((4-(2-fluoro-6-(methylcarbamoyl)pyridin-3-yl)piperazin-1-yl)methyl)-3-chloropyrazolo[1,5-a]quinoxalin-4(5H)-one], the IC50 was 0.54 nM.
`Cc1nc(C(=O)O)ccc1N1CCN(Cc2cc(F)c3c(c2)[nH]c(=O)c2ccnn23)CC1` [Example 116, 7-((4-(2-methyl-6-carboxypyridin-3-yl)piperazin-1-yl)methyl)-9-fluoropyrazolo[1,5-a]quinoxalin-4(5H)-one] gave an IC50 of over 100 nM.
`CNC(=O)c1ccc(N2CCN(Cc3ccc4c(c3)[nH]c(=O)n3nccc43)CC2)c(C)n1` [Example 118, 8-((4-(2-methyl-6-(methylcarbamoyl)pyridin-3-yl)piperazin-1-yl)methyl)pyrazolo[1,5-c]quinazolin-5(6H)-one] showed an IC50 of 10.7 nM.

Reference: patent US20240368169A1 (priority 2021, published 2024)
